Drawing on ChEMBL document CHEMBL1128724, “Unsaturated acyclic analogues of 2'-deoxyadenosine and thymidine containing fluorine: synthesis and biological activity” (J Med Chem, 1995), this text covers IC50 for 4 compounds.

Test [1] relates to L1210. The experiment in a line: Growth inhibition of murine leukemia L1210 cells. It is filed as functional, cell-based. The following applies: Mus musculus.
In test [2] the test system is ATH-8 cell line. As to the kind of experiment: Inhibitory activity against HIV-1 in ATH8 cells. It counts as functional, cell-based. The following applies: Homo sapiens.
Test [3] concerns ATH-8 cell line. The experiment in a line: Inhibitory activity against HIV-1 in ATH8 cells; IA means Inactive. It counts as functional, cell-based, Homo sapiens.

Molecules are shown by their SMILES.

Take `Nc1ncnc2c1ncn2C(F)C#CCO` (centres undefined): in test [1], half-maximal inhibition (IC50) required 89 µM.
`Cc1cn(C/C=C(/F)CO)c(=O)[nH]c1=O` had an IC50 in test [1] of 60 µM.
On to `Nc1ncnc2c1ncn2C/C=C(/F)CO`, for which the IC50 in test [2] was found to be 100 µM.
Consider `Nc1ncnc2c1ncn2C/C=C(\F)CO`, for which the IC50 entry in test [3] is given as “Not Active”.
